Laboratory results taken from the NIST ThermoML archive (doi:10.1021/acs.jced.5b00246).
Where “and” joins values, the source holds several entries; their conditions need not be identical. Equal values may be shown once.

Conditions: 101.33 kPa, Liquid, NMR spin-echo technique

C1COCCO1 [1,4-dioxane]
Conditions | self diffusion coefficient [m2/s]
288.31 K | 9.1e-10
288.33 K | 8.97e-10
293.11 K | 1.03e-09
298.13 K | 1.1e-09
298.17 K | 1.12e-09
298.18 K | 1.09e-09
298.2 K | 1.13e-09
303.12 K | 1.24e-09
307.92 K | 1.3e-09
308.06 K | 1.32e-09
317.85 K | 1.55e-09
318.24 K | 1.57e-09
327.94 K | 1.79e-09
327.95 K | 1.81e-09
338.09 K | 2.15e-09
338.12 K | 2.09e-09
338.13 K | 2.11e-09
347.87 K | 2.37e-09
347.97 K | 2.43e-09
358.25 K | 2.66e-09
358.49 K | 2.66e-09

CC(C)CCCC(C)CCCC(C)CCCCC(C)CCCC(C)CCCC(C)C (stereo not given) [2,6,10,15,19,23-hexamethyltetracosane]
Conditions | self diffusion coefficient [m2/s]
270.4 K | 5.32e-12
273 K | 6.72e-12
283.3 K | 1.34e-11
283.6 K | 1.32e-11
288.28 K | 1.81e-11
293.13 K | 2.19e-11
293.19 K | 2.26e-11
298 K | 2.79e-11
298.19 K | 2.88e-11
298.44 K | 2.91e-11
303 K | 3.57e-11
303.18 K | 3.69e-11
312.99 K | 5.7e-11
314.3 K | 5.7e-11
322.69 K | 8.15e-11
322.72 K | 8.24e-11
323.16 K | 8.12e-11
325.7 K | 8.83e-11
333.03 K | 1.17e-10
333.49 K | 1.14e-10
334.8 K | 1.18e-10
342.81 K | 1.5e-10
344.9 K | 1.6e-10
348.2 K | 1.74e-10
352.82 K | 1.96e-10
353.15 K | 1.98e-10
362.6 K | 2.44e-10
362.82 K | 2.5e-10
362.88 K | 2.6e-10

CCCCC(CC)COC(=O)c1ccccc1C(=O)OCC(CC)CCCC (stereo not given) [bis(2-ethylhexyl) 1,2-benzenedicarboxylate]
Conditions | self diffusion coefficient [m2/s]
268 K | 1.31e-12
273 K | 2.05e-12
283 K | 4.57e-12
298.1 K | 1.24e-11
303.18 K | 1.71e-11
303.2 K | 1.86e-11
312.89 K | 2.91e-11
313.2 K | 3.05e-11
322.7 K | 4.5e-11
322.84 K | 4.53e-11
322.88 K | 4.53e-11
323.03 K | 4.57e-11
323.05 K | 4.57e-11
323.1 K | 4.73e-11
332.7 K | 6.93e-11
333.16 K | 6.74e-11
333.2 K | 6.78e-11
342.5 K | 9.48e-11
343.65 K | 9.74e-11
343.7 K | 9.79e-11
352.86 K | 1.3e-10
352.88 K | 1.31e-10
362.72 K | 1.69e-10
362.75 K | 1.72e-10

C1CCCCC1 [cyclohexane]
Conditions | self diffusion coefficient [m2/s]
283.47 K | 1.07e-09
283.53 K | 1.09e-09
288.31 K | 1.19e-09
288.32 K | 1.2e-09
298.12 K | 1.46e-09
298.15 K | 1.47e-09
308.02 K | 1.73e-09
308.03 K | 1.76e-09
308.16 K | 1.71e-09
308.17 K | 1.72e-09
317.68 K | 2.03e-09
317.73 K | 2.08e-09
318.22 K | 2.05e-09
318.25 K | 2.05e-09
323.04 K | 2.23e-09
328.13 K | 2.47e-09
328.15 K | 2.47e-09
333.02 K | 2.6e-09
333.05 K | 2.65e-09
342.79 K | 2.97e-09
348.16 K | 3.25e-09

C[S+](C)[O-] [dimethyl sulfoxide]
Conditions | self diffusion coefficient [m2/s]
293.09 K | 6.55e-10
298.26 K | 7.46e-10
298.29 K | 7.45e-10
308.1 K | 9.1e-10
318.03 K | 1.12e-09
328.1 K | 1.34e-09
338.12 K | 1.59e-09
348.17 K | 1.84e-09
363.71 K | 2.29e-09

CCCCCCCCCCCC [dodecane]
Conditions | self diffusion coefficient [m2/s]
264.14 K | 3.95e-10
266.5 K | 4.2e-10
268.03 K | 4.37e-10
278.2 K | 5.59e-10
278.52 K | 5.63e-10
278.56 K | 5.64e-10
278.72 K | 5.66e-10
288.09 K | 6.97e-10
288.49 K | 7.03e-10
288.52 K | 7.03e-10
298.15 K | 8.56e-10
298.2 K | 8.57e-10
298.21 K | 8.57e-10
308.15 K | 1.03e-09
308.16 K | 1.04e-09
318.15 K | 1.22e-09
318.16 K | 1.23e-09
323.17 K | 1.33e-09
328.17 K | 1.43e-09
328.22 K | 1.44e-09
328.25 K | 1.47e-09
333.14 K | 1.54e-09
337.93 K | 1.67e-09
337.97 K | 1.66e-09
337.99 K | 1.67e-09
348.08 K | 1.92e-09
352.75 K | 2.07e-09
352.77 K | 2.04e-09
364.53 K | 2.44e-09
364.54 K | 2.41e-09

CCCCCO [pentan-1-ol]
Conditions | self diffusion coefficient
253.13 K | 5.27e-11 m2/s
253.19 K | 5.32e-11 m2/s
258.42 K | 6.61e-11 m2/s
258.47 K | 6.61e-11 m2/s
263.25 K | 8.06e-11 m2/s
263.28 K | 8.11e-11 m2/s
268.65 K | 1.01e-10 m2/s
268.66 K | 1.02e-10 m2/s
278.4 K | 1.51e-10 m2/s
278.43 K | 1.52e-10 m2/s
288.31 K | 2.17e-10 m2/s
288.33 K | 2.17e-10 m2/s
298.16 K | 3.01e-10 m2/s
298.17 K | 3e-10 m2/s
298.19 K | 2.99e-10 m2/s
298.21 K | 3.02e-10 m2/s
298.27 K | 3.02e-10 m2/s
308.09 K | 4.13e-10 m2/s
308.11 K | 4.14e-10 m2/s
318.08 K | 5.54e-10 m2/s
318.09 K | 5.56e-10 m2/s
323.1 K | 6.39e-10 m2/s
323.15 K | 6.43e-10 m2/s
327.86 K | 7.3e-10 m2/s and 7.36e-10 m2/s
337.71 K | 9.56e-10 m2/s
337.74 K | 9.49e-10 m2/s
347.21 K | 1.22e-09 m2/s
347.25 K | 1.22e-09 m2/s
352.35 K | 1.4e-09 m2/s
352.36 K | 1.4e-09 m2/s
352.55 K | 1.41e-09 m2/s
364.52 K | 1.84e-09 m2/s
364.59 K | 1.83e-09 m2/s
364.73 K | 1.83e-09 m2/s

Cc1ccccc1 [toluene]
Conditions | self diffusion coefficient
239.09 K | 7.12e-10 m2/s
240.94 K | 7.53e-10 m2/s
248.57 K | 8.98e-10 m2/s
251.71 K | 9.77e-10 m2/s
253.27 K | 1.01e-09 m2/s
253.28 K | 1.01e-09 m2/s
258.16 K | 1.13e-09 m2/s
258.23 K | 1.13e-09 m2/s
263.51 K | 1.24e-09 m2/s
268.32 K | 1.38e-09 m2/s
273.43 K | 1.5e-09 m2/s
273.54 K | 1.52e-09 m2/s
278.07 K | 1.67e-09 m2/s
278.15 K | 1.67e-09 m2/s
288.05 K | 1.98e-09 m2/s
293.08 K | 2.13e-09 m2/s
298 K | 2.3e-09 m2/s
298.18 K | 2.27e-09 m2/s
298.2 K | 2.32e-09 m2/s
298.21 K | 2.28e-09 m2/s and 2.3e-09 m2/s
308.07 K | 2.71e-09 m2/s
322.69 K | 3.15e-09 m2/s
323.16 K | 3.32e-09 m2/s
323.18 K | 3.3e-09 m2/s
332.93 K | 3.56e-09 m2/s
333.16 K | 3.56e-09 m2/s
343.45 K | 4.09e-09 m2/s
